# Article PMC3906678 (Clinical cancer research : an official journal of the …, 2012)
# Like-named read-outs stand apart in the source and are kept apart here.
# Tests used:
# P-S6 = settings: biopsies from treated patients; cited from earlier work
# P-AKT Ser473 [1] = settings: biopsies from treated patients; cited from earlier work
# [2] = human, in vivo
# metastatic melanoma [3] = settings: cited from earlier work
# metastatic melanoma [4] = settings: temsirolimus; cited from earlier work
# P-AKT Ser473 [5] = settings: single-agent, matching biopsies, head and neck cancer patients; cited from earlier work
structure (smiles),measurement,setting,value
CO[C@H]1C[C@@H]2CC[C@@H](C)[C@@](O)(O2)C(=O)C(=O)N2CCCC[C@H]2C(=O)O[C@H]([C@H](C)C[C@@H]2CC[C@@H](OCCO)[C@H](OC)C2)CC(=O)[C@H](C)/C=C(\C)[C@@H](O)[C@@H](OC)C(=O)[C@H](C)C[C@H](C)/C=C/C=C/C=C/1C [everolimus],Change in P-S6,P-S6,decrease
same,Change in P-AKT Ser473,P-AKT Ser473 [1],increase
CNC(=O)c1cc(Oc2ccc(NC(=O)Nc3ccc(Cl)c(C(F)(F)F)c3)cc2)ccn1 [Sorafenib],Mean Cmax and Cavg at steady-state on Day 15 compared to Day 1,[2],2-4 fold
same,Clinical response rate,"metastatic melanoma [3]; melanoma patients, sorafenib",3%
same,Patients who achieved a clinical response,"metastatic melanoma [3]; metastatic melanoma patients, sorafenib monotherapy",one of 37
CO[C@H]1C[C@@H]2CC[C@@H](C)[C@@](O)(O2)C(=O)C(=O)N2CCCC[C@H]2C(=O)O[C@H]([C@H](C)C[C@@H]2CC[C@@H](OC(=O)C(C)(CO)CO)[C@H](OC)C2)CC(=O)[C@H](C)/C=C(\C)[C@@H](O)[C@@H](OC)C(=O)[C@H](C)C[C@H](C)/C=C/C=C/C=C/1C [Temsirolimus],Patients who achieved a clinical response,metastatic melanoma [4],1 of 33
same,Change in P-AKT Ser473,P-AKT Ser473 [5],lack of increase
